Test results as given in patent US11498923B2 (Merck Sharp & Dohme Corp., priority 2017, dated 2022).

Biological target: T1, human A2a receptor (Homo sapiens, UniProt P29274)
T1 construct: purchased Perkin-Elmer RBHA2AM400UA; host or cells: HEK293 cells, used as a membrane preparation
Experiment: A2a receptor competition binding assay (Scintillation Proximity)
Conditions: membranes from HEK293 cells expressing human A2a receptor; 0.5 nM tritiated ligand; Cheng-Prusoff; read-out: A2a Ki
Summary of the method: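 Ki values were obtained with the Cheng-Prusoff equation from competition curves against 0.5 nM tritiated antagonist, scintillation proximity counting after 1 h room-temperature incubation. Receptor came from HEK293 membranes pretreated with adenosine deaminase; compound final range 3000–0.15 nM, buffer Ca/Mg-free PBS with 10 mM MgCl2.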

T1 sequence (P29274 whole entry): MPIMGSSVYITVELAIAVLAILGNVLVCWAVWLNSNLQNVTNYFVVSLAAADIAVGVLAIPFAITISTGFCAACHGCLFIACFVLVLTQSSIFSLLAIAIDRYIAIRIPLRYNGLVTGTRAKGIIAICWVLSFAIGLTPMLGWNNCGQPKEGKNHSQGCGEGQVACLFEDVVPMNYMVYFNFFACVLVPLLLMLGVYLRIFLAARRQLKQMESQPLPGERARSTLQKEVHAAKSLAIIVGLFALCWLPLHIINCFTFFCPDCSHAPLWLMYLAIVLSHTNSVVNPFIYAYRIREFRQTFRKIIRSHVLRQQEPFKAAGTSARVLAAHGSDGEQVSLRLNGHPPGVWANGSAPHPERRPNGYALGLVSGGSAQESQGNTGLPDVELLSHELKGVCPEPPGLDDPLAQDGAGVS

Going from Nc1nc2c(F)cccc2c2nc(CC3CCN(Cc4cccs4)CC3)cn12 [Ex-306, 7-fluoro-2-((1-(thio-phen-2-ylmethyl)-piperidin-4-yl)methyl)-imidazo[1,2-c]quina-zolin-5-amine] to Nc1nc2c(F)cccc2c2nc(CC3CCN(Cc4cccnc4)CC3)cn12 [Ex-313, 7-fluoro-2-((1-(pyridin-3-yl-methyl)piperidin-4-yl)methyl)imidazo-[1,2-c]quinazolin-5-amine], the Ki rises from 45 nM to 310 nM (6.9-fold). The first binds more tightly here.

Going from CCN1CCC(Cc2cn3c(N)nc4c(F)cccc4c3n2)CC1 [Ex-307, 2-((1-ethyl-piperidin-4-yl)methyl)-7-fluoro-imidazo[1,2-c]quina-zolin-5-amine] to Cc1ccc(CN2CCC(Cc3cn4c(N)nc5c(F)cccc5c4n3)CC2)cc1 [Ex-312, 7-fluoro-2-((1-(4-methylbenzyl)piperi-din-4-yl)methyl)-imidazo-[1,2-c]-quinazolin-5-amine], the Ki falls from 120 nM to 48 nM (2.5-fold).

Compared with Nc1nc2c(F)cccc2c2nc(CC3CCN(CCc4ccccc4)CC3)cn12 [Ex-308, 7-fluoro-2-((1-phen-ethylpiperidin-4-yl)-methyl)imidazo[1,2-c]quinazolin-5-amine], Nc1nc2c(F)cccc2c2nc(CC3CCN(C(=O)OCc4ccccc4)CC3)cn12 [Ex-316, benzyl 4-((5-amino-7-fluoroimidazo[1,2-c]quinazolin-2-yl)-methyl)piperidine-1-carboxylate] is 10-fold lower in Ki: 300 nM for the first, 30 nM for the second.

Compared with COc1ccc(CN2CCC(Cc3cn4c(N)nc5c(F)cccc5c4n3)CC2)cc1 [Ex-309, 7-fluoro-2-((1-(4-methoxybenzyl)-piperidin-4-yl)-methyl)imidazo-[1,2-c]quinazolin-5-amine], COc1cccc(CN2CCC(Cc3cn4c(N)nc5c(F)cccc5c4n3)CC2)c1 [Ex-310, 7-fluoro-2-((1-(3-methoxybenzyl)-piperidin-4-yl)-methyl)imidazo-[1,2-c]quinazolin-5-amine] is 2.7-fold lower in Ki: 150 nM for the first, 56 nM for the second. The second binds more tightly here.

COc1ccccc1CN1CCC(Cc2cn3c(N)nc4c(F)cccc4c3n2)CC1 [Ex-311, 7-fluoro-2-((1-(2-methoxybenzyl)-piperidin-4-yl)-methyl)imidazo-[1,2-c]quinazolin-5-amine] and Nc1nc2c(F)cccc2c2nc(CC3CCN(C(=O)c4ccccc4)CC3)cn12 [Ex-315, (4-((5-amino-7-fluoro-imidazo[1,2-c]quina-zolin-2-yl)methyl)-piperidin-1-yl)-(phenyl)methanone] are within 1.5-fold of each other in Ki: 94 nM for the first, 82 nM for the second.

First: Nc1nc2c(F)cccc2c2nc(CC3CCN(C(=O)c4cccnc4)CC3)cn12 [Ex-317, (4-((5-amino-7-fluoroimidazo-[1,2-c]quinazolin-2-yl)methyl)piperidin-1-yl)(pyridin-3-yl)-methanone]
Second: Nc1nc2c(F)cccc2c2nc(CC3CCN(C(=O)c4cnccn4)CC3)cn12 [Ex-321, (4-((5-amino-7-fluoroimidazo[1,2-c]quinazolin-2-yl)-methyl)piperidin-1-yl)(pyrazin-2-yl)-methanone]
The Ki of the first is 2.9-fold higher: 100 nM for the first, 34 nM for the second. The second binds more tightly here.

Compared with Nc1nc2c(F)cccc2c2nc(CC3CCN(c4ccc(F)cn4)CC3)cn12 [Ex-319, 5-amino-7-fluoro-2-((1-(5-fluoropyridin-2-yl)piperidin-4-yl)-methyl)imidazo[1,2-c]quinazolin-6-ium 2,2,2-trifluoroacetate], Nc1nc2c(F)cccc2c2nc(CC3CCN(C(=O)c4ccc(F)cn4)CC3)cn12 [Ex-323, (4-((5-amino-7-fluoroimidazo[1,2-c]quinazolin-2-yl)-methyl)piperidin-1-yl)(5-fluoropyridin-2-yl)methanone] is 1.8-fold lower in Ki: 31 nM for the first, 17 nM for the second. The second binds more tightly here.

COc1ccnc(C(=O)N2CCC(Cc3cn4c(N)nc5c(F)cccc5c4n3)CC2)c1 [Ex-320, (4-((5-amino-7-fluoroimidazo[1,2-c]quinazolin-2-yl)-methyl)piperidin-1-yl)(4-methoxypyridin-2-yl)methanone] and COc1ccc(C(=O)N2CCC(Cc3cn4c(N)nc5c(F)cccc5c4n3)CC2)nc1 [Ex-327, (4-((5-amino-7-fluoroimidazo[1,2-c]quinazolin-2-yl)-methyl)piperidin-1-yl)(5-methoxypyridin-2-yl)methanone] are within 1.5-fold of each other in Ki: 30 nM for the first, 21 nM for the second.

First: Nc1nc2c(F)cccc2c2nc(CC3CCN(C(=O)c4cccc(Br)n4)CC3)cn12 [Ex-322, (4-((5-amino-7-fluoroimidazo[1,2-c]quinazolin-2-yl)-methyl)piperidin-1-yl)(6-bromopyridin-2-yl)methanone]
Second: Cc1cccc(C(=O)N2CCC(Cc3cn4c(N)nc5c(F)cccc5c4n3)CC2)n1 [Ex-324, (4-((5-amino-7-fluoroimidazo[1,2-c]quinazolin-2-yl)-methyl)piperidin-1-yl)(6-methylpyridin-2-yl)methanone]
The Ki of the first is 1.7-fold lower: 26 nM for the first, 44 nM for the second.

COc1cccc(C(=O)N2CCC(Cc3cn4c(N)nc5c(F)cccc5c4n3)CC2)n1 [Ex-325, (4-((5-amino-7-fluoroimidazo[1,2-c]-quinazolin-2-yl)-methyl)piperidin-1-yl)(6-methoxypyridin-2-yl)methanone] and Nc1nc2c(F)cccc2c2nc(CC3CCN(C(=O)c4ncccn4)CC3)cn12 [Ex-326, (4-((5-amino-7-fluoroimidazo[1,2-c]quinazolin-2-yl)-methyl)piperidin-1-yl)(pyrimidin-2-yl)-methanone] are within 1.5-fold of each other in Ki: 54 nM for the first, 47 nM for the second.

Same assay, conditions: value printed in the synthesis text as 'A2a=' without quantity name; read-out: A2a

Work on Nc1nc2c(F)cccc2c2nc(Cc3ccc4c(c3)CN(C(=O)c3ccccc3)C4)cn12 [L-005052550, (5-((5-amino-7-fluoroimidazo[1,2-c]quinazolin-2-yl)methyl)isoindolin-2-yl)(phenyl)methanone] yielded a Ki of 8.4 nM.
